# Legend:
# [1] = test system: Aspergillus flavus; assay: Antifungal activity against Aspergillus flavus at 10 ug/ml by agar plate method; format: functional
# [2] = test system: Aspergillus flavus; assay: Antifungal activity against Aspergillus flavus at 20 ug/ml by agar plate method; format: functional
# [3] = test system: Aspergillus flavus; assay: Antifungal activity against Aspergillus flavus at 50 ug/ml by agar plate method; format: functional
# [4] = test system: Aspergillus flavus; assay: Antifungal activity against Aspergillus flavus at 100 ug/ml by agar plate method; format: functional
# [5] = test system: Aspergillus niger; assay: Antifungal activity against Aspergillus niger at 10 ug/ml by agar plate method; format: functional
# [6] = test system: MCF7; assay: Cytotoxicity against human MCF7 cells; format: functional, cell-based
# [7] = test system: Aspergillus niger; assay: Antifungal activity against Aspergillus niger at 20 ug/ml by agar plate method; format: functional
# [8] = test system: Aspergillus niger; assay: Antifungal activity against Aspergillus niger at 50 ug/ml by agar plate method; format: functional
# [9] = test system: Aspergillus niger; assay: Antifungal activity against Aspergillus niger at 100 ug/ml by agar plate method; format: functional
# [10] = test system: Pseudomonas aeruginosa; assay: Antibacterial activity against Pseudomonas aeruginosa by disk diffusion method; format: functional
# [11] = test system: Staphylococcus aureus; assay: Antibacterial activity against Staphylococcus aureus by disk diffusion method; format: functional
# [12] = test system: Klebsiella pneumoniae; assay: Antibacterial activity against Klebsiella pneumoniae by disk diffusion method; format: functional
# [13] = test system: MCF7; assay: Cytotoxicity against human MCF7 cells assessed as decrease in number of cells relative to control; format: functional, cell-based
Compound,inhibition at 10 µg/mL [1],inhibition at 20 µg/mL [2],inhibition at 50 µg/mL [3],inhibition at 100 µg/mL [4],inhibition at 10 µg/mL [5],IC50 [6],inhibition at 20 µg/mL [7],inhibition at 50 µg/mL [8],inhibition at 100 µg/mL [9],inhibition zone (IZ) [10],inhibition zone (IZ) [11],inhibition zone (IZ) [12],Activity [13]
COc1ccc(-n2c(-c3ccccc3)c(-c3ccccc3)c3cc4c(cc3c2=O)C(c2ccccc2)NC(=O)N4)cc1 (centres undefined),≤ 25%,≤ 25%,≤ 25%,≤ 25%,≤ 25%,11.4 µM,≤ 25%,≤ 25%,≤ 25%,6 mm,6 mm,6 mm,Not toxic
O=C1Nc2cc3c(-c4ccccc4)c(-c4ccccc4)n(-c4ccccc4)c(=O)c3cc2C(c2ccccc2)N1 (centres undefined),53.3%,60%,73.3%,86.7%,60%,4.4 µM,75%,90%,95%,10 mm,>14 mm,6 mm,Toxic
O=C1Nc2cc3c(-c4ccccc4)c(-c4ccccc4)n(-c4ccc(Cl)cc4)c(=O)c3cc2C(c2ccccc2)N1 (centres undefined),60%,76.7%,83.3%,93.3%,50%,25.6 µM,70%,80%,90%,10 mm,10 mm,10 mm,Toxic
O=C1NCc2cc3c(=O)n(-c4ccccc4)c(-c4ccccc4)c(-c4ccccc4)c3cc2N1,≤ 25%,≤ 25%,≤ 25%,≤ 25%,≤ 25%,8.5 µM,≤ 25%,≤ 25%,≤ 25%,6 mm,6 mm,6 mm,
O=C1NCc2cc3c(=O)n(-c4ccc(Cl)cc4)c(-c4ccccc4)c(-c4ccccc4)c3cc2N1,≤ 25%,≤ 25%,≤ 25%,≤ 25%,≤ 25%,3.7 µM,≤ 25%,≤ 25%,≤ 25%,6 mm,6 mm,6 mm,Not toxic

# Source: ChEMBL document CHEMBL1146901, “Synthesis and pharmacological study of novel pyrido-quinazolone analogues as anti-fungal, antibacterial, and anticancer agents” (Bioorg Med Chem Lett, 2006)
